Results reported in the supplement of paper PMC11061612.

How the values were obtained:
Assay in all cases: combination Emax (second highest fraction inhibited in the dose matrix, 72 h); higher = more inhibition; extreme values may be limits of the assay
786-0 (Kidney Carcinoma) = system: 786-0 (Kidney Carcinoma)
Method in brief: (§1)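 After 24 hours at 37°C and 5% CO2 in 1536-well plates, cells in DMEM/F12 or RPMI plus 10% FBS received two-drug dose matrices for 72 hours. Viability came from CellTiter-Glo 2.0 luminescence and was scaled as inhibition, anchored at 0 by vehicle wells and at 1 by blank wells. Combination Emax is taken as the second-highest inhibition in the matrix, and Bliss excess as the observed combination effect less EA + EB − EA·EB, with EA and EB the single-agent effects.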

[1] = system: BALL-1 (B-Lymphoblastic Leukemia)
Method in brief: as §1

[2] = system: Becker (Low Grade Glioma)
Method in brief: as §1

[3] = system: CML-T1 (Chronic Myelogenous Leukemia)
Method in brief: as §1

[4] = system: COLO-684 (Endometrial Carcinoma)
Method in brief: as §1

[5] = system: Calu-6 (Non-Small Cell Lung Carcinoma)
Method in brief: as §1

[6] = system: Caov-3 (Ovarian Carcinoma)
Method in brief: as §1

[7] = system: FLO-1 (Esophageal Adenocarcinoma)
Method in brief: as §1

[8] = system: HTC-C3 (Thyroid Gland Carcinoma)
Method in brief: as §1

[9] = system: KYSE-70 (Esophageal Squamous Cell Carcinoma)
Method in brief: as §1

[10] = system: LAMA-84 (Chronic Myelogenous Leukemia)
Method in brief: as §1

[11] = system: NCI-H1155 (Non-Small Cell Lung Carcinoma)
Method in brief: as §1

[12] = system: NCI-H1563 (Lung Adenocarcinoma)
Method in brief: as §1

[13] = system: NCI-H1623 (Lung Adenocarcinoma)
Method in brief: as §1

[14] = system: NCI-H810 (Non-Small Cell Lung Carcinoma)
Method in brief: as §1

[15] = system: NKM-1 (Acute Myeloid Leukemia)
Method in brief: as §1

[16] = system: RL95-2 (Endometrial Carcinoma)
Method in brief: as §1

RT4 (Bladder Carcinoma) = system: RT4 (Bladder Carcinoma)
Method in brief: as §1

[17] = system: SJRH30 (Rhabdomyosarcoma)
Method in brief: as §1

[18] = system: SNU-175 (Colorectal Carcinoma)
Method in brief: as §1

SMILES | combination Emax (786-0 (Kidney Carcinoma)) | combination Emax [1] | combination Emax [2] | combination Emax [3] | combination Emax [4] | combination Emax [5] | combination Emax [6] | combination Emax [7] | combination Emax [8] | combination Emax [9] | combination Emax [10] | combination Emax [11] | combination Emax [12] | combination Emax [13] | combination Emax [14] | combination Emax [15] | combination Emax [16] | combination Emax (RT4 (Bladder Carcinoma)) | combination Emax [17] | combination Emax [18]
Cc1c2c(nn1C)CSCc1cc(n(C)n1)CSc1cc(c3ccccc3c1)OCCCc1c(C(=O)O)n(C)c3c-2c(Cl)ccc13 [AZD5991] + CCN(CCO)CCCOc1ccc2c(Nc3cc(CC(=O)Nc4cccc(F)c4)[nH]n3)ncnc2c1 [AZD2811] (first compound max 1 µM, 7x7, partner max 1 µM) | 0.35 | 0.875 | 0.147 | 0.389 | 0.381 | 0.361 | 0.896 | 0.489 | 0.235 | 0.315 | 0.636 | 0.897 | 0.517 | 0.899 | 0.981 | 0.969 | 1 | 0.913 | 0.663 | 0.96
COc1cccc(OCCCN)c1-c1cc(Nc2cnc(C#N)cn2)n[nH]1 [Prexasertib] + CCc1c2c(nc3ccc(O)cc13)-c1cc3c(c(=O)n1C2)COC(=O)[C@]3(O)CC [SN-38] (first compound max 1 µM, 7x7, partner max 0.3 µM) | 0.938 | 1 | 0.816 | 1 | 0.956 | 0.862 | 0.984 | 0.918 | 0.966 | 0.869 | 1 | 0.993 | 0.629 | 0.987 | 0.98 | 0.938 | 0.979 | 0.894 | 0.984 | 0.734
CC1(C)CCC(CN2CCN(c3ccc(C(=O)NS(=O)(=O)c4ccc(NCC5CCOCC5)c([N+](=O)[O-])c4)c(Oc4cnc5[nH]ccc5c4)c3)CC2)=C(c2ccc(Cl)cc2)C1 [Venetoclax] + CN(C)CCCOc1ccc(-c2ccc3ncc4c(c3c2)n(C2CCOCC2)c(=O)n4C)cn1 [AZD0156] (first compound max 1 µM, 7x7, partner max 1 µM) | 0.195 | 1 | 0.434 | 0.947 | 0.211 | 0.199 | 0.59 | 0.339 | 0.205 | 0.104 | 0.339 | 0.145 | 0.406 | 0.262 | 0.121 | 0.959 | 0.135 | 0.189 | 0.177 | 0.128
CCN(CCO)CCCOc1ccc2c(Nc3cc(CC(=O)Nc4cccc(F)c4)[nH]n3)ncnc2c1 [AZD2811] + C=CCn1c(=O)c2cnc(Nc3ccc(N4CCN(C)CC4)cc3)nc2n1-c1cccc(C(C)(C)O)n1 [AZD1775] (first compound max 1 µM, partner max 1 µM) | 0.546 | 0.986 | 0.167 | 0.915 | 0.649 | 0.727 | 0.846 | 0.769 | 0.3 | 0.549 | 0.917 | 0.45 | 0.245 | 0.297 | 0.886 | 0.879 | 0.662 | 0.408 | 0.827 | 0.637
CC1(C)CCC(CN2CCN(c3ccc(C(=O)NS(=O)(=O)c4ccc(NCC5CCOCC5)c([N+](=O)[O-])c4)c(Oc4cnc5[nH]ccc5c4)c3)CC2)=C(c2ccc(Cl)cc2)C1 [Venetoclax] + C[C@@H]1COCCN1C2=NC(=NC(=C2)C3(CC3)[S@](=N)(=O)C)C4=C5C=CNC5=NC=C4 [AZD6738] (first compound max 1 µM, 7x7, partner max 10 µM) | 0.712 | 1 | 0.656 | 0.993 | 0.753 | 0.801 | 0.794 | 0.559 | 0.674 | 0.433 | 0.975 | 0.829 | 0.307 | 0.827 | 0.577 | 1 | 0.691 | 0.612 | 0.864 | 0.658
CC1(C)CCC(CN2CCN(c3ccc(C(=O)NS(=O)(=O)c4ccc(NCC5CCOCC5)c([N+](=O)[O-])c4)c(Oc4cnc5[nH]ccc5c4)c3)CC2)=C(c2ccc(Cl)cc2)C1 [Venetoclax] + C=CCn1c(=O)c2cnc(Nc3ccc(N4CCN(C)CC4)cc3)nc2n1-c1cccc(C(C)(C)O)n1 [AZD1775] (first compound max 1 µM, partner max 1 µM) | 0.582 | 1 | 0.76 | 1 | 0.732 | 0.787 | 0.801 | 0.84 | 0.341 | 0.604 | 0.964 | 0.223 | 0.371 | 0.577 | 0.781 | 0.995 | 0.475 | 0.372 | 0.9 | 0.553
